# Active and inactive are the calls of the source.
# Key:
# [1] = viability loss in Vero cells – cytotoxicity control for Vif-APOBEC3G degradation inhibitor project, dose response (AID 1117358); format: functional; settings: Vero
# Bcl-2-related protein A1 [2] = molecular target: T1, Bcl-2-related protein A1 (Mus musculus, UniProt Q07440); test: Bfl-1 binding inhibitors, SAR follow-up, biochemical, fluorescence polarization (AID 1070)
# T1 sequence (Q07440 whole entry): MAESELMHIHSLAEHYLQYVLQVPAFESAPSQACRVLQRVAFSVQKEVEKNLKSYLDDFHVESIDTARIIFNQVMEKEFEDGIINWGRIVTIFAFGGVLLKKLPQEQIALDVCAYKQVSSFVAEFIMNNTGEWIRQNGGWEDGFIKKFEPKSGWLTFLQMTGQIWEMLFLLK
# Bcl-2-related protein A1 [3] = molecular target: T1, Bcl-2-related protein A1; test: small-molecule antagonists of Bfl-1/BH3 interaction – biochemical, TR-FRET, mouse Bfl-1, confirmation (AID 621);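 further: TR-FRET binding of GST-Bfl-1 to FITC-labelled Bid peptide via terbium antibody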
# [4] = molecular target: Glyceraldehyde-3-phosphate dehydrogenase (Homo sapiens, UniProt P04406)
# Sequence of Glyceraldehyde-3-phosphate dehydrogenase (P04406 whole entry): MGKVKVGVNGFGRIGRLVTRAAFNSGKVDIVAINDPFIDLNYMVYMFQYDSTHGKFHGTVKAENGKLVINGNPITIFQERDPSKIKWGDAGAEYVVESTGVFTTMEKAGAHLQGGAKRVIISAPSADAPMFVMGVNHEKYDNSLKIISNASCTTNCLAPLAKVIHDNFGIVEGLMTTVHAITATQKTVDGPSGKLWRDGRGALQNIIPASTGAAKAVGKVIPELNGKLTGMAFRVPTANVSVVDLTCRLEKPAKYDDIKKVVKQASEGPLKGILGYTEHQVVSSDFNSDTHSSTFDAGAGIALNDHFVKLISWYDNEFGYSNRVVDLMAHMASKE
# H9c2 = test: cells; format: functional, cell-based; settings: Rattus norvegicus, H9c2, Myocardium;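 further: confirmatory concentration-response retest of ultra-high-throughput screening hits for modulation of myocardial damage; cell death induced by hydrogen peroxide oxidative stress; compound pretreatment for 60 min then peroxide exposure for 2 h; potency is for protecting the cells against peroxide damage rather than for killing them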
# fMet-Leu-Phe receptor = molecular target: T2, fMet-Leu-Phe receptor (Homo sapiens, UniProt P21462); test: formyl peptide receptor binders – dose response (AID 519); format: functional
# T2 sequence (P21462 whole entry): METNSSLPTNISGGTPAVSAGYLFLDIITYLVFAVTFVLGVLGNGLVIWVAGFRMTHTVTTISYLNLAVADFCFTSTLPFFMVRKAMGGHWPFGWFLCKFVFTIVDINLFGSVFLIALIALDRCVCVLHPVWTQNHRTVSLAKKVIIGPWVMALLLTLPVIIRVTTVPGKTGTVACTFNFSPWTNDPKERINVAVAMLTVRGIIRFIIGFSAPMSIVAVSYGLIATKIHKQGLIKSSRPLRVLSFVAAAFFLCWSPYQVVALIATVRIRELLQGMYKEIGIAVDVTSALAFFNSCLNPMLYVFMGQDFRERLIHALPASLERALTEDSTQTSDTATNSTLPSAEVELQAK
# [5] = molecular target: Disintegrin and metalloproteinase domain-containing protein 17 (Homo sapiens, UniProt P78536); test: exosite inhibitors of ADAM17, dose response, biochemical (AID 743260)
# Sequence of Disintegrin and metalloproteinase domain-containing protein 17 (P78536 whole entry, the tested form may be a part): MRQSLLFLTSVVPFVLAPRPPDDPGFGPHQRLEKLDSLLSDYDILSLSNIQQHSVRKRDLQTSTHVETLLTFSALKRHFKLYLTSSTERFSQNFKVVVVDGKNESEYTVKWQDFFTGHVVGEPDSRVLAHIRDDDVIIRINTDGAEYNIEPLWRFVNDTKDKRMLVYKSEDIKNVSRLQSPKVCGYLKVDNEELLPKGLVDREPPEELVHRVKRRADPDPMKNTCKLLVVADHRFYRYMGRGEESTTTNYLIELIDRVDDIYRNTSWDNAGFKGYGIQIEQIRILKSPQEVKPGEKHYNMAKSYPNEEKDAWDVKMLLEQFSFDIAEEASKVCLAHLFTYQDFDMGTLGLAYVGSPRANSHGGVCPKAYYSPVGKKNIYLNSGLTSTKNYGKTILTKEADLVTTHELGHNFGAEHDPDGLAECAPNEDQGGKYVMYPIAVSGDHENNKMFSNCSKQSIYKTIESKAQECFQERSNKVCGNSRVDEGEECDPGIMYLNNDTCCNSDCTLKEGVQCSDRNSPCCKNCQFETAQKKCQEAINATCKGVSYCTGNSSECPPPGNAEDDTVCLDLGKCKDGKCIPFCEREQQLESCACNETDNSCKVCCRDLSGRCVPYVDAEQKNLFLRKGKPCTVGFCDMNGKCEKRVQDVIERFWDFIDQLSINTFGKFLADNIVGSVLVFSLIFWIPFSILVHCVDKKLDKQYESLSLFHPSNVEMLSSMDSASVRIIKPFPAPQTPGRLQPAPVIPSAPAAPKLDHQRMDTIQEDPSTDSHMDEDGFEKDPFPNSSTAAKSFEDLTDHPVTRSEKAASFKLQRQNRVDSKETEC
# [6] = inhibition of ADAM10 peptide cleavage – biochemical, FRET peptide substrate, recombinant human ADAM10, selectivity assay for ADAM17 exosite inhibitor project, dose response (AID 743259);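 further: ADAM10 enzyme cleaving a FRET peptide substrate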
# cells [7] = format: functional, cell-based
# cells [8] = format: functional, cell-based; remark: listed apart in the source
# [9] = molecular target: T3, Trace amine-associated receptor 1 (Homo sapiens, UniProt Q96RJ0); test: Fluorescence-based cell-based high throughput dose response assay to identify agonists of the human trace amine associated receptor 1 (TAAR1).; format: functional
# T3 sequence (Q96RJ0 whole entry): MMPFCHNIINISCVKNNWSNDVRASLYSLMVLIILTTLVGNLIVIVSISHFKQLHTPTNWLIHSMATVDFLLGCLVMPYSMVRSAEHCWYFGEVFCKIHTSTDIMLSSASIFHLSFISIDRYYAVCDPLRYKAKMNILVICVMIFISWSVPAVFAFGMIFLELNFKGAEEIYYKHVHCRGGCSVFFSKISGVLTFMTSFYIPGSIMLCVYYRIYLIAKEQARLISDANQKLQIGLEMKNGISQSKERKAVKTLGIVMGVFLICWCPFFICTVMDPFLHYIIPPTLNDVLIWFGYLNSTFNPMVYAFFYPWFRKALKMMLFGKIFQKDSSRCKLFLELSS
# [10] = molecular target: T3, Trace amine-associated receptor 1; test: Counterscreen for agonists of the human trace amine associated receptor 1 (hTAAR1): Fluorescence-based cell-based high throughput dose response assay to identify hTAAR1 agonist that also desensitize TAAR1 receptor response.; format: functional
# [11] = HEK-293T viability loss after treatment – luminescence, T-cell screen hits, cytotoxicity control for TCR NF-kB inhibitor project, dose response (AID 489026); format: functional, cell-based;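 further: cells exposed to compound about 14 hours before the viability readout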
# [12] = blockade of melanocortin 4 receptor signaling – cell-based, plate reader, cherry pick, counter-screen for LGR2 antagonist project, dose response (AID 743444); format: functional;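 further: transfected HEK 293 cells stimulated with alpha-MSH peptide; potency of inhibitors of the alpha-MSH evoked signal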
# [13] = A549 cell cytotoxicity, dose response, cytotoxicity control, plate reader, cherry-pick, antagonist series (AID 743412); format: functional, cell-based
# [14] = toxicity toward HepG2 liver cells – cell-based, plate reader, cherry-pick, antagonist series, cytotoxicity control, dose response (AID 743416); format: functional
# Paired box protein Pax-8 = Paired box protein Pax-8 (Homo sapiens, UniProt Q06710); test: PAX8 transcriptional activity inhibition in RMG-I – RMG-I cells, luciferase, cherry-pick, dose response (AID 687027); format: functional, cell-based;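 further: luciferase reporter driven by Pax8 target thyroperoxidase promoter measured by SteadyGlo luminescence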
# Sequence of Paired box protein Pax-8 (Q06710 whole entry): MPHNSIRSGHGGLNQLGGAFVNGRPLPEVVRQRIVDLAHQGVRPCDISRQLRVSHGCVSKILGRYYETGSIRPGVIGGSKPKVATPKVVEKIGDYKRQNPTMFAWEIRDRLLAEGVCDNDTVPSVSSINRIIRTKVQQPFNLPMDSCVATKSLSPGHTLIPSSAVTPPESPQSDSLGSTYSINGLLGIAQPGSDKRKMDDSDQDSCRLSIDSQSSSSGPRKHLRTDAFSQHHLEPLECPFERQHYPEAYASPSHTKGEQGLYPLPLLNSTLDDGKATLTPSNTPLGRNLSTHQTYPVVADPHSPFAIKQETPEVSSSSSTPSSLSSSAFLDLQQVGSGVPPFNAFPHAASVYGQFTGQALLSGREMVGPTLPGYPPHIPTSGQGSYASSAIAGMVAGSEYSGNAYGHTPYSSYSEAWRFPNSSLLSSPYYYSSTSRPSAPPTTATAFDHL
# [15] = OVCAR-3 cell viability loss – plate reader, dry powder samples, PAX8 inhibitor project, dose response (AID 743044); format: functional, cell-based
# [16] = IGROV1 cell killing – plate reader, dry powder samples, PAX8 inhibitor project, dose response (AID 743043); format: functional, cell-based; settings: IGROV-1
smiles,measurement,setting,value
Cc1ccc(C(=O)OC2CCS(=O)(=O)c3sccc32)cc1 (stereo unspecified),CC50,[1],32.7 µM (active)
O=c1c2ccccc2c(-c2ccccc2)nn1-c1cc(Cl)ccc1[N+](=O)[O-],CC50,[1],> 40 µM (active)
Clc1ccc(-n2nnc(-c3cccnc3)n2)cn1,IC50,Bcl-2-related protein A1 [2],> 100 µM (not active)
same,IC50,Bcl-2-related protein A1 [3],> 100 µM (not active)
O=C1C2CC=CCC2C(=O)N1c1nc(-c2ccco2)n[nH]1 (stereo unspecified),IC50,[4],> 100 µM (not active)
COc1ccc2nc(O)c(-c3nnn(-c4ccc(F)cc4)n3)cc2c1,IC50,H9c2,37.1 µM (inactive)
same,IC50,Bcl-2-related protein A1 [2],> 100 µM (not active)
same,IC50,Bcl-2-related protein A1 [3],> 100 µM (not active)
CC1Oc2ccccc2N(Cc2ccccc2Cl)C1=O (stereo unspecified),Ki,fMet-Leu-Phe receptor,> 66.7 µM (inactive)
COc1cc(SC)ccc1C(=O)NCCOc1ccc(C)c(C)c1,IC50,[5],> 69.5 µM (inactive)
same,IC50,[6],27.5 µM (inactive)
O=C(Nc1ccccc1)Nc1ccncc1,EC50,cells [7],> 29.9 µM (inactive)
same,IC50,cells [8],> 29.9 µM (inactive)
same,EC50,[9],1.02 µM (active)
same,IC50,[10],7.05 µM (active)
O=C(C[n+]1ccccc1)Nc1nc2ccccc2s1,IC50,[5],> 69.5 µM (inactive)
same,IC50,[6],> 69.5 µM (inactive)
COc1ccc(-n2nnnc2-c2ccccc2)cc1,IC50,[11],> 80 µM (inactive)
same,CC50,[1],> 40 µM (active)
CCCCN(Cc1ccccc1)S(=O)(=O)c1cc2c(cc1Br)CC(C)N2C(C)=O (stereo unspecified),AC50,[12],58.1 µM (active)
same,AC50,[13],28.8 µM (active)
same,IC50,[5],> 69.5 µM (inactive)
same,AC50,[14],46 µM (active)
same,IC50,[6],12.6 µM (inactive)
COc1cccc(S(=O)(=O)Nc2ccc3c(c2)[C@@H]2C[C@@H](CC(=O)NCc4ccc(Cl)cc4)O[C@@H](CO)[C@@H]2O3)c1,AC50,Paired box protein Pax-8,3.36 µM (active)
same,AC50,[15],25.9 µM (active)
same,AC50,[16],60.3 µM (active)
NC(Cc1ccccc1)c1csc(Nc2ccc(C(=O)NCCO)cc2)n1 (stereo unspecified),EC50,cells [7],> 29.9 µM (inactive)
same,IC50,cells [8],> 29.9 µM (inactive)
same,EC50,[9],4.32 µM (active)
same,IC50,[10],> 29.9 µM (inactive)
COc1ccc2c(=O)c(N3C(=O)c4ccccc4C3=O)c(C)oc2c1,Ki,fMet-Leu-Phe receptor,> 66.7 µM (inactive)
Cc1cc(N/N=C/c2ccccc2O)nc(N2CCOCC2)n1,EC50,cells [7],> 29.9 µM (inactive)
same,IC50,cells [8],> 29.9 µM (inactive)
same,EC50,[9],> 29.9 µM (inactive)
same,IC50,[10],2.52 µM (active)

# Source: ChEMBL document CHEMBL1201862, “PubChem BioAssay data set” (2004)
